≈ marks a conversion by molar mass, not a printed value. Where “and” joins values, the source holds several entries; their conditions need not be identical. Equal entries are not always repeated. Where two headings read alike, the source gives them in different places.
Key:
[1] = Thermodynamic parameters of the Vx-770 aqueous solution process; assay type: physicochemical
Method: As a further parameter of clinical interest, we also determined the aqueous solubility of Vx-770 at body temperature (pH = 7.1). […] The standard enthalpy of solution, estimated from the solubilities at 37°C vs. 25°C, is ΔH^osol = +51.2 kJ/mol, and the standard free energy of solution at 25°C is ΔG^osol = +41.1 kJ/mol (Materials and methods).
The standard enthalpy of solution was calculated as ΔH^osol = ((RT1T2)/(T2−T1))⋅ln(S(T2)/S(T1)), where R = 8.31 Jmol^−1K^−1, T1 = 298 K (25°C), T2 = 310 K (37°C), and S(T1) and S(T2) are the measured aqueous solubilities of Vx-770 at the respective temperatures (pH = 7.1). The standard free energy of solution at T = 298 K (25°C) was calculated as ΔG^osol = −RT⋅ln(S(T)).

WT CFTR = target: T1, WT CFTR (Homo sapiens, UniProt P13569); assay: Macroscopic current recording in excised inside-out patches from Xenopus laevis oocytes; assay type: biochemical; settings: for EC50: 2 mM ATP, 25°C, read-out: K0.5 for current stimulation
T1 construct: expressed in transfected cells; host or cells: Xenopus laevis oocytes injected with cRNA transcribed from pGEMHE-CFTR
T1 sequence (P13569 whole entry): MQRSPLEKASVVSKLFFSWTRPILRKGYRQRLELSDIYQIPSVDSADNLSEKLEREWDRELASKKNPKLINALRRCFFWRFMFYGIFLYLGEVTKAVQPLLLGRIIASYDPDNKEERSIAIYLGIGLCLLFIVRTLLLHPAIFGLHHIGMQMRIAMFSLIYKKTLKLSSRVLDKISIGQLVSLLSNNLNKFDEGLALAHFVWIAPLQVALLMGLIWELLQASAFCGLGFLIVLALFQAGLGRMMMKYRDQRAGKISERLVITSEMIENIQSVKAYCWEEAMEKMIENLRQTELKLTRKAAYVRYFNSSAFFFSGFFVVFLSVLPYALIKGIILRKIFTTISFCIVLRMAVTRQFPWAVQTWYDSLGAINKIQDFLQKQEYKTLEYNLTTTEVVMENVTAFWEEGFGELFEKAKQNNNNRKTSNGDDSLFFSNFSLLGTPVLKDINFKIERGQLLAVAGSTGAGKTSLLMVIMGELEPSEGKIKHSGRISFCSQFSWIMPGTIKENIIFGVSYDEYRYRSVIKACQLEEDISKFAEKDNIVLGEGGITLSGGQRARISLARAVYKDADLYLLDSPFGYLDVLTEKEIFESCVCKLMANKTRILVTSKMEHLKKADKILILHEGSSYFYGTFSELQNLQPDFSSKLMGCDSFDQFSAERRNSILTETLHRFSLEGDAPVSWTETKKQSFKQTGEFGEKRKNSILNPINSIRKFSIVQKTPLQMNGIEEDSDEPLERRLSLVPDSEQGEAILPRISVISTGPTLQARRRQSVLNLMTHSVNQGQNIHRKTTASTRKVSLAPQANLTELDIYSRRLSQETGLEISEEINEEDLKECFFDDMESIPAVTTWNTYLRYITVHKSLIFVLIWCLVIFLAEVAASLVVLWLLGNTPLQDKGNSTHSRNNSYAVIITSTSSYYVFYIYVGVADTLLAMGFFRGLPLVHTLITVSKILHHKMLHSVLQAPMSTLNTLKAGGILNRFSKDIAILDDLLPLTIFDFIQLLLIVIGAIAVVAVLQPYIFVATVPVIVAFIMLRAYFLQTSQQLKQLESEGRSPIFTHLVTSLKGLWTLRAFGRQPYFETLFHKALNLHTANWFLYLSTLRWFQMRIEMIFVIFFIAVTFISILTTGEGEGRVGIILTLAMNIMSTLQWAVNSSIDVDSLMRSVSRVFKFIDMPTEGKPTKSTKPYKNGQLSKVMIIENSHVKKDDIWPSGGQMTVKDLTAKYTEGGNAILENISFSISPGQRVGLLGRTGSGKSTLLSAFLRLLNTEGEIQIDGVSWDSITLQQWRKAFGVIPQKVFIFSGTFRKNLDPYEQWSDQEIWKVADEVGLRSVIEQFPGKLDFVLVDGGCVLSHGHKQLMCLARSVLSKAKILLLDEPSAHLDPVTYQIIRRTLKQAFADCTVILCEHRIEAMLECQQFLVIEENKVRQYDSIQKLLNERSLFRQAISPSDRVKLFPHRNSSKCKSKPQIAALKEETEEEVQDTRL
Description: We reasoned that this circumstance might explain some of the puzzling features of the drug, such as CFTR channel inactivation observed in some cases ([Cholon et al., 2014]), as well as apparent irreversibility of drug effects ([Jih and Hwang, 2013]; [Lin et al., 2016]; [Yeh et al., 2015]; [Yeh et al., 2017]; [Wang et al., 2014]; [Wang et al., 2018]). To investigate stability and reversibility of Vx-770 effects in a concentration range that can be achieved in the human body during oral drug administration, we tested the effects of our 1x saturated Vx-770 solution and its dilutions in inside-out patches excised from Xenopus laevis oocytes expressing WT or mutant human CFTR channels.
Patch pipette solution contained (in mM): 136 NMDG-Cl, 2 MgCl2, 5 HEPES, pH = 7.4 with NMDG. Bath solution contained (in mM): 134 NMDG-Cl, 2 MgCl2, 5 HEPES, 0.5 EGTA, pH = 7.1 with NMDG. MgATP (2 mM) was added from a 400 mM aqueous stock solution (pH = 7.1 with NMDG). Before each experiment 300 nM catalytic subunit of PKA (Sigma-Aldrich Kft., Budapest, Hungary) was applied for ~1 min to phosphorylate CFTR channels. Vx-770 (Selleck Chemicals) was diluted into the bath solution either from a ‘1x saturated’ aqueous stock solution (see above, concentration ~62 nM), or from a commercially obtained 10 mM stock dissolved in DMSO (Selleck Chemicals). Following patch excision the patch pipette was moved into a flow chamber, and recordings were done under continuous superfusion of the cytosolic patch surface. Solution compositions were exchanged using computer-driven electronic valves (solution exchange time constant <50 ms). After each recording day perfusion tubings were extensively washed with distilled water. Although supersaturated solutions of Vx-770 were not employed here, any perfusion tubing that had ever been in contact with a given concentration of Vx-770 was subsequently used only for solutions that contained the same, or higher, concentrations of the drug. After every 5–6 experimental days the entire perfusion system was replaced. Currents were recorded at 25°C, at a membrane potential of −40 mV, digitized at 10 kHz, Gaussian-filtered at 2 kHz, and recorded to disk (Axopatch 200B, Digidata 1322A, Pclamp9 (Molecular Devices, RRID: SCR_011323)). For display purposes, currents are shown filtered at 10 Hz and sampled at 20 Hz, and expanded single-channel traces (Figure 2b, Figure 4d) are shown filtered at 50 Hz and sampled at 250 Hz.
Vx-770 was applied after currents elicited by 2 mM ATP had stabilized. To allow for full development of its potentiator effect, Vx-770 was superfused until the current reached steady state which, for low nanomolar Vx-770, required up to 5–6 min. After full stimulation, Vx-770 was washed off for at least 5 min to allow the current to decline to a post-drug steady state. Fractional current stimulation by Vx-770 (I/Icontrol) was calculated as the mean steady current in the presence of the drug, divided by the average of the pre- and post-drug mean steady currents. Dose response curves (Figure 3c,f) were least-squares fitted to the modified Hill equation I/Icontrol=(K0.5^n+(Imax/Icontrol)[Vx-770]^n)/(K0.5^n+[Vx-770]^n), with Imax/Icontrol, K0.5, and n as free parameters.
To obtain apparent deactivation rates, current decay time courses following Vx-770 removal were fitted by single exponentials using least squares, and deactivation rates defined as the inverse of the decay time constant (1/τoff; Figure 4c). To obtain apparent activation rates, current activation time courses upon Vx-770 addition were fitted to an empirical three-step kinetic scheme S1→S2→S3→S4. Compound states S1-S4 in this scheme are not interpreted as channel conformational states, but rather as states of the entire system (aqueous solution +patch membrane leaflets + channels), and could reflect various stages of drug distribution among those compartments. […]

[2] = Determination of Vx-770 solubility profile (incremental solvent addition; saturated saline, 1-octanol extraction, spectrophotometry at 311 nm); assay type: physicochemical; settings: aqueous saline (standard bath solution), read-out: aqueous solubility Saq
[3] = diluted from 10 mM DMSO-based stock

TΔS^osol ([1]; 25°C): +10.1 kJ/mol | standard free energy of solution ΔG^osol ([1]; 25°C): +41.1 kJ/mol | standard enthalpy of solution ΔH^osol ([1]; from aqueous solubilities at 37°C vs. 25°C, pH 7.1): +51.2 kJ/mol | apparent activation time constant τ* (WT CFTR; 0.01x saturated Vx-770 (assigned by b20: slower at low concentration), Figure 4a): 155 s | current stimulation (WT CFTR; 1x saturated (~62 nM) Vx-770, 2 mM ATP, prephosphorylated channels, -40 mV): ~ 4 fold | time constant τ of current decline following drug removal (WT CFTR; after 1x saturated (~62 nM) Vx-770, Figure 2a): 145 s | time constant τ of current decline following drug removal (WT CFTR; after 1x saturated Vx-770): ~ 2 min | Hill coefficient (WT CFTR; [3]): 1.32±0.47 | EC50 (WT CFTR; [3]): 0.49 ± 0.15 nM | Hill coefficient (WT CFTR; diluted from 1x saturated aqueous stock): 1.31±0.65 | EC50 (WT CFTR; diluted from 1x saturated aqueous stock, assuming 62 nM): 0.47 ± 0.12 nM | delay of onset of current stimulation (WT CFTR; subnanomolar/low nanomolar aqueous drug concentrations): ≤ 1 min | reversibility of Vx-770 effects (WT CFTR; upon removal of 1x saturated Vx-770): full reversibility | apparent K0.5 lower (affinity higher) than previously reported (WT CFTR; versus ~300 nM reported): ~ 600 fold and 600 fold | solubility ([2]; pH 7.1, 37°C, pH = 7.1, aqueous saline): 0.138 ± 0.001 µM (≈ 0.0542 µg/mL) | solubility at 24 h ([2]; pH 7.4, 25°C, pH = 7.4, aqueous saline): 0.05 ± 0.001 µM (≈ 0.0196 µg/mL)
SMILES: CC(C)(C)c1cc(C(C)(C)C)c(NC(=O)c2c[nH]c3ccccc3c2=O)cc1O [Vx-770, ivacaftor]

— paper PMC6594753, “Cystic fibrosis drug ivacaftor stimulates CFTR channels at picomolar concentrations” (eLife, 2019)
